Measured values from publication PMC9586306 (Proceedings of the National Academy of Sciences of the …, 2022).

Assays:
[1] = biological target: A/California/04/2009 (H1N1) neuraminidase (09N1) (Influenza A virus (A/California/04/2009(H1N1)), UniProt C3W5S3); format: biochemical; settings: read-out: IC50 ± SEM
[2] = biological target: IBV NA (B/Singapore/222/1979) (Influenza B virus, UniProt P16203); format: biochemical, Influenza B virus B/Singapore/222/1979; settings: read-out: IC50 ± SEM
Sequence of IBV NA (B/Singapore/222/1979) (P16203 77-466 limits assumed): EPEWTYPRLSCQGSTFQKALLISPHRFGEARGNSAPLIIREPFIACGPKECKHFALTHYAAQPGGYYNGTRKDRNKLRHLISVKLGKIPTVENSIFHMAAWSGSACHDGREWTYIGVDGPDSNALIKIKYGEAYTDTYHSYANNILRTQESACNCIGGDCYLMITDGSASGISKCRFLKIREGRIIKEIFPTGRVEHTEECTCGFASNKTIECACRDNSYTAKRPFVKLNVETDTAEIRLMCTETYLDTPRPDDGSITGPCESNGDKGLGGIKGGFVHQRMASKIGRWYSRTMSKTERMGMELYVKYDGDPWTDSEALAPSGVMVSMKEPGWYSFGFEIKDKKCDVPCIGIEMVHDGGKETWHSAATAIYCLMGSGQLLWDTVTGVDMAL

## CCC(CC)[C@H](NC(C)=O)[C@@H]1[C@H](O)[C@@H](C(=O)O)C[C@H]1N=C(N)N [Peramivir, peramivir]
[1]
  IC50: 0.45 ± 0.08 nM
[2]
  IC50: 16.9 ± 1.94 nM
